We go through 5 molecules from US20100190716A1, “USE OF A PLATELET FIBRINOGEN RECEPTOR HEXAPEPTIDE ANTAGONIST AND ALPHA-ENDORPHIN AS THERAPEUTIC AGENTS” (priority 2007, published 2010).

The test system of one test is Interferon-γ (IFN-γ). The test is described as follows: Th1/Th2 cytokine profiling assay, IFN-γ. The test is classed as cell-based, mouse. Particulars: 10 micrograms per ml; Ovalbumin-restimulated Balb/c spleen cells, 72 hours. The text has this: (§1) The Balb/c mice (originated in 1923, it is a popular strain and is used in many different research disciplines. Also classified as an inbred from the production of 20 or more successive brother-sister matings, the Balb/c mouse is albino and small in size) were immunized on Days 1, 15, and 29 with Ovalbumin (Ovalbumin is the main protein found in egg white, commonly used to stimulate an immunological reaction in test animals) in PBS (5 micrograms/injection). On day 50, spleens of the mice were harvested (3 weeks after last boost with Ovalbumin). […] Thereafter, additional Ovalbumin was added to the cells at 10 micrograms/ml for in vitro restimulation of the cells. 72 hours later, cell supernatants were harvested and assayed using the Becton Dickinson Mouse Th1/Th2 Cytokine CBA Kit. This kit can be used to measure Interleukin-2 (IL-2), Interleukin-4 (IL-4), Interleukin-5 (IL-5), Interferon-γ (IFN-γ), and Tumor Necrosis Factor-α (TNF-α) protein levels in a single sample. The kit performance has been optimized for analysis of physiologically relevant concentrations ([…] levels) of specific cytokine proteins in tissue culture supernatants and serum samples.

For test [1], the system named is hepatitis B virus (HBV) ayw strain. Briefly: HBV experimental assay system, secreted HBV DNA by TaqMan PCR in HepG2-2.2.15. The test is classed as cell-based. Conditions: 10 micrograms per ml, HepG2-2.2.15, 6 days.
Test [2] deals with Tumor Necrosis Factor-α (TNF-α). Briefly: Th1/Th2 cytokine profiling assay, TNF-α. Particulars: 10 micrograms per ml; Ovalbumin-restimulated Balb/c spleen cells, 72 hours. The test is classed as cell-based, mouse.
Excerpt: as §1

Test [3] relates to Human Peripheral Blood Mononuclear Cells (PBMC), B cell proliferation. Briefly: B cell proliferation assay (SAC plus Interleukin-2 stimulated PBMC, 3H-thymidine). The test is classed as cell-based. Conditions: 10 micrograms per ml; SAC plus IL-2 stimulated PBMC. The procedure: Human Peripheral Blood Mononuclear Cells (PBMC) were obtained from normal human donors. The B cell proliferation was induced by stimulation of the cells with the B cell mitogen Staphylococcus aureus Cowans I (SAC) plus Interleukin-2, either in the absence (positive proliferation control), or in the presence of test peptides—10 micrograms per ml—to examine their effects on the B cell response. 10^5/well PBMC were plated in 96-well microtiter plates and assayed in duplicate with the peptides. Cell cultures were incubated at 37° C. for 3 days in a 5% CO2 incubator and were thereafter pulsed with 1 microCi/well ^3H-thymidine for additional 12 hours of culture. At the end of incubation time, the plates were harvested and the cells counted by liquid scintillation for the incorporation of ^3H-thymidine as a measure of B cell proliferation.

The subject of the next test is HUVEC. Briefly: Endothelial tube formation assay. The test is classed as cell-based, human. Conditions: 10 micrograms per ml, 20 hours. As for the experimental part: The endothelial tube formation assay is based on the ability of endothelial cells to form three-dimensional capillary-like tubular structures when cultured on a gel of basement membrane extract. The endothelial tube formation assay represents a powerful model for studying inhibition and induction of angiogenesis. Pre-labeled HUVEC with Calcein AM were seeded in a 96-well culture plate coated with extracellular metrix (Chemicon international Cat. ECM625) and treated with test peptides—10 micrograms per ml—in full growth medium. Positive control was vehicle only. The endothelial cells were allowed to form tubes foe 20 hours and were then examined under an inverted fluorescent microscope. Duplicate wells for each treatment were photographed and quantitatively analyzed for an average tubule length using image analysis software ImageProPlus. Raw data were expressed as average tubule lengths in pixels ±standard deviation. Statistic p values were computed using the Student's t-test.

Test [4] deals with Primary Human endothelial cells (HUVEC). Briefly: Endothelial cell migration assay. The class given is cell-based. Conditions: 10 micrograms per ml, 22 hours. As for the experimental part: Endothelial cell migration is a prerequisite for the process of neo-vascularization or angiogenesis which is crucial for on-site recruitment of blood vessel formation. Primary Human endothelial cells (HUVEC) were seeded in insert chambers with 3 micrometer pore size of multi-transwell plate for 6 hours at 37° C. in Endothelial Cell Basal Medium (EBM) supplemented with 0.1% bovine serum albumin. Thereafter, designated concentration of testing peptides—10 micrograms per ml—was added in duplicate wells. The endothelia were allowed to migrate for 22 hours at 37° C., then, migrated cells were fixed and stained with Hoechst 33342 dye. Images of 3 fields per insert were taken and the number of migrated cells per field were quantified using the ImageProPlus software. Data were analyzed for the average number of the migrated cells and standard deviation of six data points for each treatment condition. Active test peptides against HUVEC migration was determined based on 50% inhibition of migrated cells as compared with the control. Statistic p values were computed using the Student's t-test.

The next test has as its system HCMV strain AD169. Briefly: HCMV plaque formation assay in MRC-5 cells. Conditions: for inhibition of HCMV plaque formation compared to virus control: 10 micrograms per ml, 7-10 days.
In another test the test system is Interleukin-2 (IL-2). The test is described as follows: Th1/Th2 cytokine profiling assay, IL-2. The test is classed as cell-based, mouse. Conditions: 10 micrograms per ml; Ovalbumin-restimulated Balb/c spleen cells, 72 hours.
Excerpt: as §1

For the next test, the system named is Interleukin-5 (IL-5). The test is described as follows: Th1/Th2 cytokine profiling assay, IL-5. The class given is cell-based, mouse. Particulars: 10 micrograms per ml; Ovalbumin-restimulated Balb/c spleen cells, 72 hours.
Excerpt: as §1

The next test concerns Interleukin-4 (IL-4). Briefly: Th1/Th2 cytokine profiling assay, IL-4. The class given is cell-based, mouse. Particulars: 10 micrograms per ml; Ovalbumin-restimulated Balb/c spleen cells, 72 hours.
Excerpt: as §1

The subject of the next test is HIV-1IIIB. The test is described as follows: HIV-1 antiviral assay in CEM-SS cells (MTS readout). Particulars: positive controls.

Where no end group is shown, it is not given here. [ ]: non-standard residue; d: D form. Hyp = O=C(O)[C@@H]1C[C@@H](O)CN1

In the case of “Tyr-Gly-Gly-Phe-Met-Thr-Ser-Glu-Lys-Ser-Gln-Thr-Pro-Leu-Val-Thr-OH (YGGFMTSEKSQTPLVT-OH) [peptide 2, Alpha-Endorphin]”, the “IFNγ spleen cells; TH1 response (% of control)” value with Interferon-γ (IFN-γ) is 68.6 % of control. Further, in test [1], the “inhibition of HBV replication on tested liver cells” value is reported as “no effect”. Further, the “TNF-a spleen cells; TH1 response (% of control)” value in test [2] is on record as 93.1 % of control. In addition, in test [3], the “decrease of the proliferation of specifically stimulated human B-cells” value came out at 12.0%. Also, in the test with HUVEC, the “inhibition of the tube formation of human endothelial cells” value is given as “did not inhibit”. Besides, the “inhibition of the migration of human endothelial cells” value in test [4] is reported as 31%. The “inhibition of HCMV plaque formation compared to virus control” value in the test with HCMV strain AD169 was “did not inhibit”. For the same molecule, the “IL-2 spleen cells (% of control)” value with Interleukin-2 (IL-2) is 0.0 % of control. Besides, the “IL-5 spleen cells; TH2 response (% of control)” value in the test on Interleukin-5 (IL-5) is 53.0 % of control. Further, the “IL-4 spleen cells; TH2 response (% of control)” value in the test with Interleukin-4 (IL-4) is on record as 0.0 % of control.

Take `Nc1nc(O)c2ncn(COC(CO)CO)c2n1` [Ganciclovir, reference compound]: the “antiviral activity of positive control compound” value with HCMV strain AD169 (positive control, HCMV AD169) is on record as “expected levels of antiviral activity”.

As for `CC(C)(C)NC(=O)[C@@H]1CN(Cc2cccnc2)CCN1C[C@@H](O)C[C@@H](Cc1ccccc1)C(=O)N[C@H]1c2ccccc2C[C@H]1O` [indinavir], the “antiviral activity of positive control compounds” value in the test on HIV-1IIIB was “expected levels of antiviral activity”.

With `Cc1cn([C@H]2C[C@H](N=[N+]=[N-])[C@@H](CO)O2)c(=O)[nH]c1=O` [AZT], the “antiviral activity of positive control compounds” value in the test with HIV-1IIIB was “expected levels of antiviral activity”.

With PS[Hyp]GDW-OH [peptide 1], the “IFNγ spleen cells; TH1 response (% of control)” value in the test with Interferon-γ (IFN-γ) is on record as 63.7 % of control. The “inhibition of HBV replication on tested liver cells” value in [1] is “no effect”. Besides, the “TNF-a spleen cells; TH1 response (% of control)” value in [2] is 96.0 % of control. The “decrease of the proliferation of specifically stimulated human B-cells” value in [3] was found to be 20.9%. The “inhibition of the tube formation of human endothelial cells” value in the test on HUVEC is “did not inhibit”. In test [4], the “inhibition of the migration of human endothelial cells” value is given as 39%. In addition, the “inhibition of HCMV plaque formation compared to virus control” value in the test with HCMV strain AD169 is recorded as “did not inhibit”. Moreover, the “IL-2 spleen cells (% of control)” value with Interleukin-2 (IL-2) was 117.9 % of control. Besides, the “IL-5 spleen cells; TH2 response (% of control)” value with Interleukin-5 (IL-5) was 65.5 % of control. Also, in the test with Interleukin-4 (IL-4), the “IL-4 spleen cells; TH2 response (% of control)” value is given as 0.0 % of control.
